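Following 48 hours of exposure in 96-well plates, responses at five concentrations were used to interpolate endpoints linearly. At the TGI there is no net growth.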
Experiments:
Assay in all cases: NCI anticancer screen, dose series, 48 h
[1] = test system: NCI-H460 lung
[2] = test system: OVCAR-8 ovarian
[3] = test system: SK-OV-3 ovarian
[4] = test system: NCI-H522 lung
[5] = test system: K-562 leukemia
[6] = test system: OVCAR-5 ovarian
[7] = test system: UO-31 renal
[8] = test system: CAKI-1 renal
[9] = test system: EKVX NSCLC
[10] = test system: IGROV1 ovarian
[11] = test system: MCF7 breast
[12] = test system: OVCAR-4 ovarian
[13] = test system: SNB-75 CNS
[14] = test system: HOP-92 NSCLC
[15] = test system: ACHN renal
[16] = test system: NCI-H23 lung
[17] = test system: MDA-N
[18] = test system: T-47D breast

| Compound | TGI [1] | TGI [2] | TGI [3] | TGI [4] | TGI [5] | TGI [6] | TGI [7] | TGI [8] | TGI [9] | TGI [10] | TGI [11] | TGI [12] | TGI [13] | TGI [14] | TGI [15] | TGI [16] | TGI [17] | TGI [18] |
| --- | --- | --- | --- | --- | --- | --- | --- | --- | --- | --- | --- | --- | --- | --- | --- | --- | --- | --- |
| COc1ccccc1NC(=S)Nc1ccccn1 | > 100 µM | > 100 µM | > 100 µM | > 100 µM | > 100 µM | > 100 µM | > 100 µM | > 100 µM | > 100 µM | > 100 µM | > 100 µM | > 100 µM | > 100 µM | – | – | – | – | – |
| O=C(O)CNc1ncc2c(n1)-c1ccccc1OC2 | > 100 µM | > 100 µM | > 100 µM | – | > 100 µM | > 100 µM | > 100 µM | > 100 µM | > 100 µM | > 100 µM | > 100 µM | > 100 µM | > 100 µM | > 100 µM | > 100 µM | > 100 µM | > 100 µM | – |
| CN(C)/C=N/S(=O)(=O)c1nn2c(C=O)c(-c3ccc(-c4ccccc4)cc3)nc2s1 | 13.7 µM | – | 36.2 µM | 1.6 µM | – | 25.3 µM | 2.73 µM | 2.88 µM | 19.8 µM | 2.59 µM | – | 4.24 µM | 18.3 µM | 10.1 µM | 3.18 µM | 4.55 µM | – | 5.57 µM |
| CCc1n[nH]c(=O)n1N | > 100 µM | > 100 µM | > 100 µM | > 100 µM | > 100 µM | > 100 µM | > 100 µM | > 100 µM | > 100 µM | > 100 µM | > 100 µM | > 100 µM | > 100 µM | > 100 µM | > 100 µM | > 100 µM | – | > 100 µM |
| N=c1oc2ccccc2cc1C(=O)Nc1ccccn1 | > 100 µM | > 100 µM | > 100 µM | – | > 100 µM | > 100 µM | – | > 100 µM | > 100 µM | > 100 µM | – | > 100 µM | > 100 µM | > 100 µM | > 100 µM | > 100 µM | > 100 µM | > 100 µM |
| CSCCCNC(=O)c1csc(-c2csc(CCNC(=O)CNC(=O)OC(C)(C)C)n2)n1 | > 100 µM | > 100 µM | > 100 µM | > 100 µM | > 100 µM | > 100 µM | > 100 µM | > 100 µM | > 100 µM | > 100 µM | > 100 µM | > 100 µM | > 100 µM | > 100 µM | > 100 µM | > 100 µM | > 100 µM | – |
| COc1cnc2oc3ccc(O)cc3c2c1-c1ccccc1 | > 100 µM | > 100 µM | > 100 µM | > 100 µM | > 100 µM | 68.2 µM | > 100 µM | > 100 µM | > 100 µM | – | > 100 µM | > 100 µM | > 100 µM | > 100 µM | > 100 µM | > 100 µM | – | > 100 µM |
| c1ccc(Nc2nnc(-c3ccccc3Nc3ccccc3-c3nnc(Nc4ccccc4)s3)s2)cc1 | > 100 µM | > 100 µM | – | > 100 µM | > 100 µM | > 100 µM | > 100 µM | – | > 100 µM | > 100 µM | > 100 µM | > 100 µM | > 100 µM | > 100 µM | > 100 µM | > 100 µM | > 100 µM | – |
| CC(=O)NC1=C(NCCO)C(=O)c2ccccc2C1=O | > 50 µM | > 50 µM | > 50 µM | > 50 µM | > 50 µM | – | > 50 µM | – | > 50 µM | > 50 µM | – | > 50 µM | > 50 µM | – | > 50 µM | > 50 µM | – | – |
| Cc1cc(O)c(C(O)c2ccccn2)cc1O (stereo unspecified) | > 100 µM | 40.8 µM | – | 14.7 µM | > 100 µM | 33.8 µM | 33.5 µM | 24.2 µM | 36.5 µM | > 100 µM | 43.8 µM | – | 31.9 µM | – | 18.4 µM | 42.6 µM | 36.2 µM | – |
| Nc1nc(N)c2ncn(Cc3ccccc3CO)c2n1 | > 100 µM | > 100 µM | > 100 µM | > 100 µM | > 100 µM | > 100 µM | > 100 µM | > 100 µM | > 100 µM | > 100 µM | > 100 µM | > 100 µM | > 100 µM | > 100 µM | > 100 µM | > 100 µM | – | > 100 µM |
| Fc1nc(-c2c3ccccc3c3sc4ccccc4n23)nc(N2CCOCCOCCOCCOCC2)n1 | > 100 µM | > 100 µM | > 100 µM | > 100 µM | > 100 µM | > 100 µM | > 100 µM | > 100 µM | > 100 µM | > 100 µM | > 100 µM | > 100 µM | 5.87 µM | 93 µM | > 100 µM | > 100 µM | > 100 µM | – |
| O=C(O)C(Cc1ccc(O)cc1)N=Cc1nc(-c2ccccc2)oc1O (stereo unspecified) | > 100 µM | > 100 µM | > 100 µM | > 100 µM | > 100 µM | > 100 µM | > 100 µM | > 100 µM | > 100 µM | – | – | > 100 µM | > 100 µM | > 100 µM | > 100 µM | > 100 µM | – | – |
| CCCCCCCCC#CCCCCCCC(F)C(=O)O (stereo unspecified) | > 100 µM | > 100 µM | > 100 µM | > 100 µM | > 100 µM | > 100 µM | > 100 µM | – | > 100 µM | > 100 µM | – | > 100 µM | > 100 µM | > 100 µM | > 100 µM | > 100 µM | – | > 100 µM |
| COc1cc2c(cc1OCCCN1CCOCC1)N=C[C@@H]1CCCN1C2=O | > 100 µM | 98.3 µM | 87.5 µM | 3.97 µM | > 100 µM | 59.9 µM | > 100 µM | 26.3 µM | 47.1 µM | – | > 100 µM | 40.1 µM | – | 7.4 µM | 92 µM | – | 97.5 µM | – |
